Measured values: ChEMBL document CHEMBL1201862, “PubChem BioAssay data set” (2004)
Active and inactive are the calls of the source.

Columns and labels:
[1] = biological target: Cytochrome P450 2C19 (Homo sapiens, UniProt P33261); experiment: Cytochrome panel assay with activity outcomes. Panel member name: p450-cyp2c19 Compounds with AC50 equal or less than 10 uM are considered active; type: functional
[2] = cytotoxicity toward NIH3T3 fibroblasts, dose response, counter-screen, cell-based, ATP luminescence, mouse fibroblasts (AID 2010); type: functional;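 note: cells exposed to compound for about 90 hours before reading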
[3] = inhibitors of intracellular T. cruzi replication, confirmation, NIH3T3 host cells, beta-gal luminescence (AID 2044); type: functional, cell-based;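 note: intracellular parasites grown in NIH/3T3 mouse fibroblasts as host cells; luminescent beta-galactosidase reporter signal from transgenic T. cruzi replicating inside host cells; inhibitors lower the luminescence signal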
[4] = biological target: Cytochrome P450 3A4 (Homo sapiens, UniProt P08684);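 note: CYP3A4 tested as one member of a cytochrome P450 panel screen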
[5] = test system: Streptococcus sp. 'group A'; experiment: growth inhibition of control SK(-) GAS strain, dose response, counter-screen for streptokinase expression inhibitor project, luminescence, kanamycin, BacTiterGlo, confirmation (AID 1900); type: functional, organism-based
[6] = test system: Streptococcus; experiment: Group A Streptococcus viability loss, dose response, counter-screen for streptokinase expression inhibitor project, luminescence, BacTiterGlo (AID 1915); type: functional, organism-based;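 note: potency for reduction of bacterial viability or growth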
[7] = biological target: T1, Streptokinase A (Streptococcus pyogenes serotype M1, UniProt P10520); experiment: S. pyogenes streptokinase expression inhibitors, potency, dose response, plasminogen activation absorbance, OD405 (AID 1914); type: functional, Streptococcus pyogenes M1 GAS;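 note: secreted streptokinase activity via plasminogen activation per viability signal from cell pellet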
T1 sequence (P10520 whole entry): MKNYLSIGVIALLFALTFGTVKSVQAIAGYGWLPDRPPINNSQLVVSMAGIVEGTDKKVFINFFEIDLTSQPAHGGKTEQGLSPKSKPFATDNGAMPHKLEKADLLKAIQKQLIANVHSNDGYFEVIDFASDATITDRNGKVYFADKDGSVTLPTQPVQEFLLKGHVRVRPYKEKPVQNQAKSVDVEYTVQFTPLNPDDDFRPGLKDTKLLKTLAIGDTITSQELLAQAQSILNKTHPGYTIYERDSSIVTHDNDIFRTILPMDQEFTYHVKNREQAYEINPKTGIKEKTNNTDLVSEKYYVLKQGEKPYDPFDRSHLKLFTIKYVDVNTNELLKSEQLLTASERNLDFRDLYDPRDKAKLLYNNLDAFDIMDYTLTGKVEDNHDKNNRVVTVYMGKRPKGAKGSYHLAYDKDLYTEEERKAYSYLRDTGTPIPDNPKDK

[8] = biological target: T2, Corticotropin-releasing factor receptor 2/Corticotropin-releasing factor-binding protein (Homo sapiens, UniProt P24387+Q13324); experiment: activators of CRF receptor 2 with binding protein – uHTS hits, confirmation (AID 602473); type: functional; conditions: read-out: EC50_Mean
T2 sequence (Q13324 whole entry): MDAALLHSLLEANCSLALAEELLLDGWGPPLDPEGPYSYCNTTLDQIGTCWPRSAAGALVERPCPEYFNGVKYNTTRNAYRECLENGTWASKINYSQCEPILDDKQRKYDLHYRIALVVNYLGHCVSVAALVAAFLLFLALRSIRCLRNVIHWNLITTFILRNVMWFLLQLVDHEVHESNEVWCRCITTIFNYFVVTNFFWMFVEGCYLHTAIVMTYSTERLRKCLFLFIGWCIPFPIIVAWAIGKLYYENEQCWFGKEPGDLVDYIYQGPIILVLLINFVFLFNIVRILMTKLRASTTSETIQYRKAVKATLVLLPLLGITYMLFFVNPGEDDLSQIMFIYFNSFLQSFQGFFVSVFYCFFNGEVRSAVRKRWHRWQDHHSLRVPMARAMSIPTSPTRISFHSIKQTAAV
T2 sequence (P24387 whole entry): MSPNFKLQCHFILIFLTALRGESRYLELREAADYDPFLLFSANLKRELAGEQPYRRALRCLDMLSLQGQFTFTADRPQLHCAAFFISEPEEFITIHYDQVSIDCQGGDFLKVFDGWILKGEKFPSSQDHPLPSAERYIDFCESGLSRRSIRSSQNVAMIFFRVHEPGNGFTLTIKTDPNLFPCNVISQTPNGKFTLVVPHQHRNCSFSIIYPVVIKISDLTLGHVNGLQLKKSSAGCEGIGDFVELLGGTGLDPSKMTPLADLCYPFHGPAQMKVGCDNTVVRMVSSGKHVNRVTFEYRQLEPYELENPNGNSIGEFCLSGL

[9] = biological target: Cytochrome P450 2C9 (Homo sapiens, UniProt P11712)
Cytochrome P450 2C9, sequence (P11712 whole entry): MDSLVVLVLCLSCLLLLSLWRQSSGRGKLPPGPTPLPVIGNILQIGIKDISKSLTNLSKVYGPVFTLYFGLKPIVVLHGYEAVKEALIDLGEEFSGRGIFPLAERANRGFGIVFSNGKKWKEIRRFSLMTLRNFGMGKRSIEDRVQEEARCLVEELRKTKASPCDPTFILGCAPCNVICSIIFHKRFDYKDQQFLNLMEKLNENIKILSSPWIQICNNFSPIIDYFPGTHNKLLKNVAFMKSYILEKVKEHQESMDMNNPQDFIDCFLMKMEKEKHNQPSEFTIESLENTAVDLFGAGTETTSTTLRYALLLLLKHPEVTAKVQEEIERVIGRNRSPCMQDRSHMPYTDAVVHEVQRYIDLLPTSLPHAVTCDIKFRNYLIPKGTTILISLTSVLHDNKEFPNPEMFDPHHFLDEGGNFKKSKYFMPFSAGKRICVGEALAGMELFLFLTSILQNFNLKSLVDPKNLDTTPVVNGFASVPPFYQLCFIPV

Cytochrome P450 2C19, sequence (P33261 whole entry): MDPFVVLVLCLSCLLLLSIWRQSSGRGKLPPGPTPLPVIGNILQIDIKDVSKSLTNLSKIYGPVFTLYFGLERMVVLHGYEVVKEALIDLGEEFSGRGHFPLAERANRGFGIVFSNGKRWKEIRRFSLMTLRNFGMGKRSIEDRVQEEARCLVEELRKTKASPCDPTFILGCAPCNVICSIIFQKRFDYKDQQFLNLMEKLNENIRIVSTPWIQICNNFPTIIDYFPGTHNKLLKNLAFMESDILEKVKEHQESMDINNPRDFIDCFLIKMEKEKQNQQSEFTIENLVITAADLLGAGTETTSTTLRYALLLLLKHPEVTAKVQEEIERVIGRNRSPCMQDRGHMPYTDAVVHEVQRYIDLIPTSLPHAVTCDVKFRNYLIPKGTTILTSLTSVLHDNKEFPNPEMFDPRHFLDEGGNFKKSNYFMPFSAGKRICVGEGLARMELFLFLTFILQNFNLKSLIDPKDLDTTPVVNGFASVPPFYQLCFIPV
Cytochrome P450 3A4, sequence (P08684 whole entry): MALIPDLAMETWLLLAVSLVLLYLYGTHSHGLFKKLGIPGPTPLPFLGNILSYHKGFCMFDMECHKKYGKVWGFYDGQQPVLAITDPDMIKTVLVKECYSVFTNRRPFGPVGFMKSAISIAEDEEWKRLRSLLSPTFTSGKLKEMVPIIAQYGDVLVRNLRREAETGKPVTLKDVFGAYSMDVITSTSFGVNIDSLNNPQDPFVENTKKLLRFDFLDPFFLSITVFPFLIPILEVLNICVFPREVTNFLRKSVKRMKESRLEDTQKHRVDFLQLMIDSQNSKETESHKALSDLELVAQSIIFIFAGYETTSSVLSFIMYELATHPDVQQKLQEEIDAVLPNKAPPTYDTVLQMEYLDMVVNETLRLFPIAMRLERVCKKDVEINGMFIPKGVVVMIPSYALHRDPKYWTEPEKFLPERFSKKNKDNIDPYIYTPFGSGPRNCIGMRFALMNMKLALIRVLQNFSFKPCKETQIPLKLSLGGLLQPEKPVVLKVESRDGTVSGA

With `O=C(CCCCCn1c(=S)[nH]c2cc3c(cc2c1=O)OCO3)N1CCN(C2CCCCC2)CC1` the AC50 ([1]; read-out: AC50) was 7.08 µM (inconclusive).
In the case of `CN(CCOc1ccccc1)CC(O)COCc1ccccc1F` (configuration not stated), the EC50 [2] is reported as > 60 µM (not active) and the EC50 [3] is reported as 0.526 µM (active).
For `COC(=O)NC/C=C\c1nc(CC/C=C\C(=O)O[C@H]2C[C@H]3CC(=O)O[C@@H](/C=C\CC(C)C)C[C@@H]4CC[C@H](C)[C@H](C[C@@H](OC)C[C@H](C2)O3)O4)co1`, the AC50 [1] was “inconclusive”.
With `COc1ccc(-n2c(=O)cnc3cnc(Oc4ccccc4)nc32)cc1` the AC50 ([1]; read-out: AC50) was 39.8 µM (inconclusive).
With `CCOc1ccc(Br)cc1C1C(C(=O)OC)=C(N)Oc2cc(N(C)C)ccc21` (configuration not stated) the EC50 [2] was 8.1 µM (active) and the EC50 [3] was 0.826 µM (active).
With `O=C(Nc1nnc(C2CC2)s1)c1ccncc1` the AC50 [4] was 14.1 µM (inconclusive).
For `CCCCCCC(=O)NN/C=C1/C(=O)NC(=S)N(CCCC)C1=O`, the EC50 [5] was 5.51 µM (active), the EC50 [6] was 49.3 µM (active) and the EC50 [7] was > 150 µM (not active).
In the case of `CN=C(S)Nc1ccc2nc(C)c(C)nc2c1`, the AC50 [4] is reported as 17.8 µM (inconclusive) and the AC50 ([1]; read-out: AC50) is reported as 39.8 µM (inconclusive).
For `COc1ccc2c(c1)CCCC21NC(=O)N(CC(N)=O)C1=O` (configuration not stated), the AC50 ([1]; read-out: AC50) was 39.8 µM (inconclusive).
For `COc1cccc(-c2cc(C(=O)NCC3CCCO3)c3cc(Br)cc(C)c3n2)c1` (configuration not stated), the EC50 [5] was > 150 µM (not active), the EC50 [6] was > 150 µM (not active) and the EC50 [7] was > 150 µM (not active).
In the case of `COc1ccc(NC(=O)c2cccc(Cn3cc(Br)c([N+](=O)[O-])n3)c2)c(C)c1`, the EC50 [2] is reported as 9.14 µM (active) and the EC50 [3] is reported as 0.32 µM (active).
For `Cn1c(S)nnc1CNS(=O)(=O)c1ccc(F)cc1`, the AC50 ([1]; read-out: AC50) was 39.8 µM (inconclusive).
With `Cc1cn(CC[C@H](N)C(=O)O)c(=O)[nH]c1=O` the AC50 [1] was “inconclusive”.
For `Cc1ccc(NS(=O)(=O)c2cc([N+](=O)[O-])ccc2NN=C(S)Nc2cccc(Cl)c2)c(C)c1`, the EC50 [5] was 0.833 µM (active) and the EC50 [6] was 2.37 µM (active).
With `O=C(C/C=N/OCc1ccc(F)cc1Cl)c1cnc(-c2ccccc2)s1` the AC50 [4] was 14.1 µM (inconclusive).
For `Fc1ccc(COc2ccccc2CNCc2ccncc2)cc1`, the EC50 [3] was 2.14 µM (active).
With `COc1ccc(NC(=O)C(OC(=O)c2cnc(C)cn2)c2ccccc2)cc1Cl` (configuration not stated) the EC50 [5] was 4.66 µM (active), the EC50 [6] was > 150 µM (not active) and the EC50 [7] was > 150 µM (not active).
In the case of `COc1ccccc1NC(=O)N1CCCC1C(=O)NCc1ccc2c(c1)OCO2` (configuration not stated), the AC50 ([1]; read-out: AC50) is reported as 28.2 µM (inconclusive).
For `Cc1cc2c(NC(=O)Nc3ccc(C(F)(F)F)cc3)cccc2nn1`, the EC50 [2] was > 60 µM (not active) and the EC50 [3] was 4.55 µM (active).
For `COc1cc(N)c(Cl)cc1C(=O)CCC1CCN(CCNS(C)(=O)=O)CC1`, the AC50 [4] was 15.8 µM (inconclusive).
In the case of `CC1(C)CC2CC(C)(CN2C(=O)c2ccc([N+](=O)[O-])cc2[N+](=O)[O-])C1` (configuration not stated), the EC50 [2] is reported as > 60 µM (not active) and the EC50 [3] is reported as 0.955 µM (active).
In the case of `CCc1ccccc1N1CN(Cc2ccco2)CNC1=S`, the EC50 [8] is reported as > 53 µM (inactive).
For `Cc1cc(Oc2ccc(Cl)cc2)nc(-c2ccccc2O)n1`, the EC50 [5] was > 150 µM (not active), the EC50 [6] was > 150 µM (not active) and the EC50 [7] was 14.6 µM (active).
In the case of `Cc1nc(Nc2ccc(S(=O)(=O)N3CCCCC3C)cc2)c2nnn(Cc3ccccc3)c2n1` (configuration not stated), the EC50 [2] is reported as > 60 µM (not active) and the EC50 [3] is reported as 1.92 µM (active).
For `CCOC(=O)C1=C(N)c2ccccc2CC1C1CCCC1` (configuration not stated), the EC50 [5] was 7.81 µM (active), the EC50 [6] was 11.9 µM (active) and the EC50 [7] was 19.3 µM (active).
With `Cc1nc2cnc(N3CCOCC3)nc2n(C2CC2)c1=O` the AC50 [4] was 15.8 µM (inconclusive).
In the case of `CCOC(=O)NC1(C(F)(F)F)C(=O)N(Cc2ccccc2)C2=C1C(=O)CC(C)(C)C2` (configuration not stated), the AC50 [9] is reported as 28.2 µM (inconclusive).
With `CC(C)(C)[Si](C)(C)c1c2c(nc3ccc(OCc4ccccc4)cc13)-c1cccc(=O)n1C2` the AC50 [9] was 20 µM (inconclusive).
In the case of `OCCNc1ncnc2nc[nH]c12`, the AC50 [4] is reported as 0.251 µM (inconclusive).
